Where two headings read alike, the source gives them in different places.
Assays:
[1] = tested on: Mycosphaerella graminicola; Anamorph: Septoria tritici; experiment: Leaf Blotch of Wheat fungicidal activity (SEPTTR); type: in vivo; details: Zymoseptoria tritici; for pest or weed control at 100 ppm: rate 100 ppm; for pest or weed control at 121.5 g/ha: rate 121.5 g/H
In short: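 Acetone solutions diluted with nine volumes of water containing 110 ppm Triton X-100, sprayed to run-off on first-leaf wheat seedlings (Yuma), inoculated with S. tritici before or after treatment. Plants held in dew chambers, then in a 20 °C greenhouse. Disease severity (0–100%) scored when untreated plants fully symptomatic; % control relative to untreated.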

Puccinia triticina = experiment: Wheat Brown Rust fungicidal activity (PUCCRT); type: in vivo; details: Puccinia triticina; for pest or weed control at 100 ppm: rate 100 ppm; for pest or weed control at 121.5 g/ha: rate 121.5 g/H
In short: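 Yuma wheat seedlings at first-leaf stage sprayed to run-off (acetone solution in water with 110 ppm Triton X-100) or track-sprayed as EC with 0.1% Trycol 5941; inoculated with P. triticina spores before or after treatment. Overnight dark dew at 22° C., then greenhouse 24° C.; disease severity 0–100% gives percent control vs untreated.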

[2] = 24 h, 1 Day Protectant, read-out: Disease control SEPTTR 1DP
[3] = 24 h, 1 Day Protectant, read-out: Disease control PUCCRT 1DP
[4] = 72 h, 3 Day Curative, read-out: Disease control PUCCRT 3DC
[5] = 72 h, 3 Day Curative, read-out: Disease control SEPTTR 3DC

Structure (SMILES) | pest or weed control at 100 ppm [1, 2] [%] | pest or weed control at 121.5 g/ha [1, 2] [%] | melting point [°C] | pest or weed control at 100 ppm (Puccinia triticina; [3]) [%] | pest or weed control at 121.5 g/ha (Puccinia triticina; [3]) [%] | pest or weed control at 121.5 g/ha (Puccinia triticina; [4]) [%] | pest or weed control at 100 ppm [1, 5] [%] | pest or weed control at 100 ppm (Puccinia triticina; [4]) [%] | pest or weed control at 121.5 g/ha [1, 5] [%]
COc1ccnc(C(=O)N[C@H]2COC[C@H](Cc3ccc(Cl)cc3Cl)[C@@H](Oc3ccc(C)cc3)[C@H](C)OC2=O)c1OC(C)=O [Compound F76] | 0 to 80 | 80 to 100 | 97 to 101 | 80 to 100 | 80 to 100 | 0 to 80 | – | – | –
COc1ccnc(C(=O)N[C@H]2COC[C@H](CCc3ccccc3)[C@@H](OC3CCCC3)[C@H](C)OC2=O)c1OCOC(C)=O [Compound F81] | 80 to 100 | – | 45 to 50 | 80 to 100 | – | – | 80 to 100 | 80 to 100 | –
CCCCCO[C@@H]1[C@@H](Cc2ccc(Cl)cc2Cl)COC[C@H](NC(=O)c2nccc(OC)c2OCOC(C)=O)C(=O)O[C@H]1C [Compound F112] | – | 80 to 100 | 53 to 57 | – | 80 to 100 | 0 to 80 | – | – | 80 to 100
COc1ccnc(C(=O)N[C@H]2COC[C@H](CCc3ccccc3)[C@@H](OCCCC(F)(F)F)[C@H](C)OC2=O)c1O [Compound F2] | 80 to 100 | – | 78 to 81 | 80 to 100 | – | – | 80 to 100 | 0 to 80 | –
COc1ccnc(C(=O)N[C@H]2COC[C@H](Cc3ccc(C)cc3)[C@@H](OC(=O)C(C)C)[C@H](C)OC2=O)c1OCOC(C)=O [Compound F89] | 80 to 100 | – | 43 to 47 | 80 to 100 | – | – | 80 to 100 | 80 to 100 | –
COc1ccnc(C(=O)N[C@H]2COC[C@H](Cc3ccc(Cl)cc3Cl)[C@@H](OCC(C)C)[C@H](C)OC2=O)c1OC(C)=O [Compound F74] | 80 to 100 | – | 69 to 73 | 80 to 100 | – | – | 80 to 100 | 80 to 100 | –
CCCCCO[C@@H]1[C@@H](Cc2ccc(Cl)cc2Cl)COC[C@H](NC(=O)c2nccc(OC)c2O)C(=O)O[C@H]1C [Compound F43] | 80 to 100 | – | 50 to 54 | 0 to 80 | – | – | 0 to 80 | – | –
COc1ccnc(C(=O)N[C@H]2COC[C@H](Cc3cccc4ccccc34)[C@@H](OC3CCCC3)[C@H](C)OC2=O)c1O [Compound F9] | 80 to 100 | – | 78 to 85 | 80 to 100 | – | – | 80 to 100 | – | –
COc1ccnc(C(=O)N[C@H]2COC[C@H](CCc3ccccc3)[C@@H](OCC(C)C)[C@H](C)OC2=O)c1O [Compound F4] | 80 to 100 | – | 117 to 120 | 80 to 100 | – | – | 80 to 100 | 80 to 100 | –
COc1ccnc(C(=O)N[C@H]2COC[C@H](Cc3ccc(C)cc3)[C@@H](OC(=O)C(C)C)[C@H](C)OC2=O)c1O [Compound F12] | 80 to 100 | – | 67 to 72 | 80 to 100 | – | – | 80 to 100 | 80 to 100 | –
CCCCCO[C@@H]1[C@@H](Cc2ccc(C)cc2)COC[C@H](NC(=O)c2nccc(OC)c2OCOC(C)=O)C(=O)O[C@H]1C [Compound F88] | 80 to 100 | – | 39 to 43 | 80 to 100 | – | – | 80 to 100 | 80 to 100 | –
COc1ccnc(C(=O)N[C@H]2COC[C@H](Cc3ccc(F)cc3)[C@@H](OC(=O)C3CC3)[C@H](C)OC2=O)c1O [Compound F13] | 80 to 100 | – | 68 to 73 | 80 to 100 | – | – | 80 to 100 | 80 to 100 | –
COc1ccnc(C(=O)N[C@H]2COC[C@H](Cc3ccc(Cl)cc3Cl)[C@@H](OC(=O)C(C)C)[C@H](C)OC2=O)c1O [Compound F41] | 80 to 100 | – | 79 to 82 | 80 to 100 | – | – | 80 to 100 | – | –
COc1ccnc(C(=O)N[C@H]2COC[C@H](Cc3cccc4ccccc34)[C@@H](Oc3ccc(C)cc3)[C@H](C)OC2=O)c1O [Compound F8] | 80 to 100 | – | 94 to 98 | 80 to 100 | – | – | 0 to 80 | 0 to 80 | –
COc1ccnc(C(=O)N[C@H]2COC[C@H](Cc3cccc4ccccc34)[C@@H](OCC(C)C)[C@H](C)OC2=O)c1O [Compound F10] | 80 to 100 | – | 78 to 80 | 80 to 100 | – | – | 0 to 80 | – | –
COc1ccnc(C(=O)N[C@H]2COC[C@H](Cc3cccc4ccccc34)[C@@H](OC(=O)C(C)C)[C@H](C)OC2=O)c1OC(C)=O [Compound F51, (3S,6S,7R,8S)-3-(3-acetoxy-4-methoxypicolinamido)-6-methyl-8-(naphthalen-1-ylmethyl)-4-oxo-1,5-dioxonan-7-yl isobutyrate] | 80 to 100 | – | 104 to 108 | 80 to 100 | – | – | 80 to 100 | 0 to 80 | –
COc1ccnc(C(=O)N[C@H]2COC[C@H](Cc3ccc(Cl)cc3Cl)[C@@H](OCC(C)C)[C@H](C)OC2=O)c1OCOC(C)=O [Compound F111] | 80 to 100 | – | 49 to 53 | 80 to 100 | – | – | 80 to 100 | 80 to 100 | –
COc1ccnc(C(=O)N[C@H]2COC[C@H](Cc3cccc4ccccc34)[C@@H](OC(=O)C(C)C)[C@H](C)OC2=O)c1O [Compound F5, (3S,6S,7R,8S)-3-(3-hydroxy-4-methoxypicolin-amido)-6-methyl-8-(naphthalen-1-ylmethyl)-4-oxo-1,5-dioxonan-7-yl isobutyrate] | 80 to 100 | – | 139 to 142 | 0 to 80 | – | – | 0 to 80 | 0 to 80 | –
COc1ccnc(C(=O)N[C@H]2COC[C@H](Cc3ccc(Cl)cc3Cl)[C@@H](OCC(C)C)[C@H](C)OC2=O)c1O [Compound F42] | 80 to 100 | – | 60 to 64 | 80 to 100 | – | – | 80 to 100 | 80 to 100 | –
COc1ccnc(C(=O)N[C@H]2COC[C@H](CC3CCCC3)[C@@H](OC(=O)C(C)C)[C@H](C)OC2=O)c1OC(C)=O [Compound F77] | 80 to 100 | 80 to 100 | 66 to 69 | 80 to 100 | 80 to 100 | 80 to 100 | 80 to 100 | 80 to 100 | 80 to 100
COc1ccnc(C(=O)N[C@H]2COC[C@H](Cc3ccc(F)cc3)[C@@H](OC(=O)C(C)C)[C@H](C)OC2=O)c1O [Compound F14] | 80 to 100 | – | 66 to 71 | 80 to 100 | – | – | 80 to 100 | 80 to 100 | –
